Assay results published in PubChem BioAssay AID330 (DTP/NCI, 2004).
Values joined by “and” are separate entries in the source; they are usually repeats but may differ in a detail not shown here. Equal values may be shown once. Inconclusive results and toxic doses are left out.

Test system: P388 leukemia ip, CD2F1 mice, survival T/C
Test: NCI In Vivo Anticancer Drug Screen. Data for tumor model P388 Leukemia (intraperitoneal) in CD2F1 (CDF1) mice
Settings: endpoint: median survival time, higher = longer survival
Procedure, shortened: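 Mice carrying the transplanted tumor received test compound or vehicle. Survival was recorded in each group, and the value is the treated-group measurement divided by that of the vehicle-treated control group.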

[1] = dose: 100.0 mg/kg/injection, schedule: Q01DX001 (ip), vehicle: Klucel (hydroxypropylcellulose) (HPC)
[2] = dose: 200.0 mg/kg/injection, schedule: Q01DX001 (ip), vehicle: Klucel (hydroxypropylcellulose) (HPC)
[3] = dose: 50.0 mg/kg/injection, schedule: Q01DX005 (ip), vehicle: Klucel (hydroxypropylcellulose) (HPC)
[4] = dose: 120.0 mg/kg/injection, schedule: Q01DX005 (ip), vehicle: saline with Tween-80
[5] = dose: 100.0 mg/kg/injection, schedule: Q01DX001 (ip), vehicle: saline with Tween-80
[6] = dose: 200.0 mg/kg/injection, schedule: Q01DX001 (ip), vehicle: saline with Tween-80
[7] = dose: 400.0 mg/kg/injection, schedule: Q01DX001 (ip), vehicle: saline with Tween-80
[8] = dose: 100.0 mg/kg/injection, schedule: Q04DX002 (ip), vehicle: saline with Tween-80
[9] = dose: 60.0 mg/kg/injection, schedule: Q01DX005 (ip), vehicle: saline with Tween-80
[10] = dose: 240.0 mg/kg/injection, schedule: Q01DX005 (ip), vehicle: saline with Tween-80

## Nc1nc(Cc2ccccc2)c(CCCNc2ccccc2)c(=O)[nH]1
dose: 0.78 mg/kg/injection, schedule: Q01DX009 (ip), vehicle: saline
  T/C: 100 % of control
dose: 1.56 mg/kg/injection, schedule: Q01DX009 (ip), vehicle: saline
  T/C: 100 % of control
dose: 3.13 mg/kg/injection, schedule: Q01DX009 (ip), vehicle: saline
  T/C: 102 % of control
dose: 6.25 mg/kg/injection, schedule: Q01DX009 (ip), vehicle: saline
  T/C: 100 % of control

## Cc1ccc2c(c1)sc1nc(C)cc(=O)n12
dose: 10.0 mg/kg/injection, schedule: Q04DX002 (ip), vehicle: Klucel (hydroxypropylcellulose) (HPC)
  T/C: 106 % of control
dose: 20.0 mg/kg/injection, schedule: Q04DX002 (ip), vehicle: Klucel (hydroxypropylcellulose) (HPC)
  T/C: 97 % of control
dose: 40.0 mg/kg/injection, schedule: Q04DX002 (ip), vehicle: Klucel (hydroxypropylcellulose) (HPC)
  T/C: 95 % of control

## N=C(N)c1ccc2oc(CCc3cc4ccc(C(=N)N)cc4[nH]3)cc2c1
dose: 3.12 mg/kg/injection, schedule: Q04DX003 (ip), vehicle: suspension in saline
  T/C: 100 % of control
dose: 6.25 mg/kg/injection, schedule: Q04DX003 (ip), vehicle: suspension in saline
  T/C: 113 % of control
dose: 12.5 mg/kg/injection, schedule: Q04DX003 (ip), vehicle: suspension in saline
  T/C: 110 % of control

## O=C1CCSC(=S)N1N1CCN(N2C(=O)CCSC2=S)CC1
[1]
  T/C: 102 % of control
[2]
  T/C: 93 % of control

## CC1(C)CC(=O)[C@H]2SCC(=O)CC21 (stereo partly specified)
dose: 50.0 mg/kg/injection, schedule: Q01DX005 (ip), vehicle: saline with Tween-80
  T/C: 86 % of control
dose: 100.0 mg/kg/injection, schedule: Q01DX005 (ip), vehicle: saline with Tween-80
  T/C: 99 % of control

## CCc1nc(N)nc(N)c1-c1ccc2nnn(O)c2c1
[3]
  T/C: 98 % of control
dose: 100.0 mg/kg/injection, schedule: Q01DX005 (ip), vehicle: Klucel (hydroxypropylcellulose) (HPC)
  T/C: 96 % of control
dose: 200.0 mg/kg/injection, schedule: Q01DX005 (ip), vehicle: Klucel (hydroxypropylcellulose) (HPC)
  T/C: 105 % of control

## O=C1NC2NC(=O)NC2N1 (stereo unspecified)
dose: 100.0 mg/kg/injection, schedule: Q04DX003 (ip), vehicle: Klucel (hydroxypropylcellulose) (HPC)
  T/C: 94 % of control
dose: 200.0 mg/kg/injection, schedule: Q04DX003 (ip), vehicle: Klucel (hydroxypropylcellulose) (HPC)
  T/C: 107 % of control
dose: 400.0 mg/kg/injection, schedule: Q04DX003 (ip), vehicle: Klucel (hydroxypropylcellulose) (HPC)
  T/C: 100 % of control

## CC1=C(CO)C(=O)OC(C(C)C2CCC3C4CC5OC56C(O)C(N5CC5(C)C)CC(=O)C6(C)C4CCC23C)C1 (stereo unspecified)
dose: 8.75 mg/kg/injection, schedule: Q01DX005 (ip), vehicle: Klucel (hydroxypropylcellulose) (HPC)
  T/C: 108 % of control
dose: 17.5 mg/kg/injection, schedule: Q01DX005 (ip), vehicle: Klucel (hydroxypropylcellulose) (HPC)
  T/C: 99 % of control
dose: 35.0 mg/kg/injection, schedule: Q01DX005 (ip), vehicle: Klucel (hydroxypropylcellulose) (HPC)
  T/C: 99 % of control
dose: 70.0 mg/kg/injection, schedule: Q01DX005 (ip), vehicle: Klucel (hydroxypropylcellulose) (HPC)
  T/C: 108 % of control
dose: 140.0 mg/kg/injection, schedule: Q01DX005 (ip), vehicle: Klucel (hydroxypropylcellulose) (HPC)
  T/C: 105 % of control

## C[CH2][Sn]([CH2]C)([O]P(=O)(C[Si](C)(C)C)c1ccccc1)[O]P(=O)(C[Si](C)(C)C)c1ccccc1 (stereo unspecified)
dose: 30.0 mg/kg/injection, schedule: Q01DX005 (ip), vehicle: saline with Tween-80
  T/C: 115 % of control
[4]
  T/C: 151 % of control

## N=c1ncn(C2OC(CO)C(O)C2O)c2nc[nH]c12 (stereo unspecified)
dose: 6.25 mg/kg/injection, schedule: Q01DX009 (ip), vehicle: Klucel (hydroxypropylcellulose) (HPC)
  T/C: 113 % of control
dose: 12.5 mg/kg/injection, schedule: Q01DX009 (ip), vehicle: Klucel (hydroxypropylcellulose) (HPC)
  T/C: 108 % of control

## CC(C)(O)c1ccccc1S(=O)c1ccccc1C(C)(C)O
[5]
  T/C: 93 % of control
[6]
  T/C: 95 % of control
[7]
  T/C: 98 % of control

## CCC(=O)NCC(CN(C)C)(c1ccccc1)c1ccccc1
[5]
  T/C: 112 % of control
[6]
  T/C: 100 % of control

## Cc1ccc(S(=O)(=O)N=S(=O)(CCCl)CCCl)cc1
dose: 12.5 mg/kg/injection, schedule: Q04DX003 (ip), vehicle: saline
  T/C: 98 % of control
dose: 25.0 mg/kg/injection, schedule: Q04DX003 (ip), vehicle: saline
  T/C: 98 % of control
dose: 50.0 mg/kg/injection, schedule: Q04DX003 (ip), vehicle: saline
  T/C: 96 % of control

## CC1(C)CC[C@H](C2=CC(=O)c3c(O)ccc(O)c3C2=O)O1
dose: 1.25 mg/kg/injection, schedule: Q01DX009 (ip), vehicle: Klucel (hydroxypropylcellulose) (HPC)
  T/C: 117 % of control
dose: 2.5 mg/kg/injection, schedule: Q01DX009 (ip), vehicle: Klucel (hydroxypropylcellulose) (HPC)
  T/C: 115 % of control
dose: 5.0 mg/kg/injection, schedule: Q01DX009 (ip), vehicle: Klucel (hydroxypropylcellulose) (HPC)
  T/C: 119 % of control
dose: 10.0 mg/kg/injection, schedule: Q01DX009 (ip), vehicle: Klucel (hydroxypropylcellulose) (HPC)
  T/C: 118 % of control

## CN(c1ccccc1)P(=O)(N1CC1)N1CC1
dose: 12.5 mg/kg/injection, schedule: Q01DX009 (ip), vehicle: saline sonified
  T/C: 200 % of control
dose: 25.0 mg/kg/injection, schedule: Q04DX003 (ip), vehicle: saline with Tween-80
  T/C: 160 % of control and 195 % of control
dose: 37.5 mg/kg/injection, schedule: Q04DX003 (ip), vehicle: saline with Tween-80
  T/C: 186 % of control

## O=C1CN(/N=C/c2ccc(-c3cccc(C(F)(F)F)c3)o2)C(=O)N1
dose: 50.0 mg/kg/injection, schedule: Q04DX002 (ip), vehicle: saline with Tween-80
  T/C: 101 % of control
[8]
  T/C: 109 % of control

## CSc1nccc(=O)n1-c1ccccc1F
dose: 25.0 mg/kg/injection, schedule: Q04DX002 (ip), vehicle: Klucel (hydroxypropylcellulose) (HPC)
  T/C: 102 % of control
dose: 50.0 mg/kg/injection, schedule: Q04DX002 (ip), vehicle: Klucel (hydroxypropylcellulose) (HPC)
  T/C: 104 % of control
dose: 100.0 mg/kg/injection, schedule: Q04DX002 (ip), vehicle: Klucel (hydroxypropylcellulose) (HPC)
  T/C: 102 % of control

## COC1=C(C)C(=O)c2c(c(C=O)c(Cl)n2C)C1=O
[1]
  T/C: 99 % of control
[2]
  T/C: 103 % of control

## CCOC(=O)C(C(=O)OCC)C1(O)C2CCCC21 (stereo unspecified)
[8]
  T/C: 101 % of control
dose: 200.0 mg/kg/injection, schedule: Q04DX002 (ip), vehicle: saline with Tween-80
  T/C: 101 % of control
dose: 400.0 mg/kg/injection, schedule: Q04DX002 (ip), vehicle: saline with Tween-80
  T/C: 104 % of control

## CCCCCCCCCCCCCCCC(=O)OOC(C)(C)C
[9]
  T/C: 93 % of control
[4]
  T/C: 94 % of control
[10]
  T/C: 93 % of control

## Cc1ccc(-c2nc3ccccc3c(=O)n2/N=C/c2ccccc2O)cc1
dose: 50.0 mg/kg/injection, schedule: Q01DX009 (ip), vehicle: saline with Tween-80
  T/C: 101 % of control
dose: 100.0 mg/kg/injection, schedule: Q01DX009 (ip), vehicle: saline with Tween-80
  T/C: 100 % of control
dose: 200.0 mg/kg/injection, schedule: Q01DX009 (ip), vehicle: saline with Tween-80
  T/C: 93 % of control

## CCOC(=O)c1cc(CC)sc1NC(=O)CC(C)=O
[9]
  T/C: 97 % of control
[4]
  T/C: 100 % of control
[10]
  T/C: 97 % of control

## COc1cc2c(cc1OC)[C@H]1[C@H](CO)c3ccc4c(c3CN1CC2)OCO4
dose: 12.5 mg/kg/injection, schedule: Q01DX005 (ip), vehicle: Klucel (hydroxypropylcellulose) (HPC)
  T/C: 100 % of control
dose: 25.0 mg/kg/injection, schedule: Q01DX005 (ip), vehicle: Klucel (hydroxypropylcellulose) (HPC)
  T/C: 96 % of control
[3]
  T/C: 94 % of control and 96 % of control

## CC1(C)O[Te]2(OC1(C)C)OC(C)(C)C(C)(C)O2
dose: 3.12 mg/kg/injection, schedule: Q01DX001 (ip), vehicle: saline with Tween-80
  T/C: 100 % of control
dose: 6.25 mg/kg/injection, schedule: Q01DX001 (ip), vehicle: saline with Tween-80
  T/C: 105 % of control
[5]
  T/C: 93 % of control

## O=S(=O)(O)O.[Co+3].[Co+3].[NH2-].[NH2-].[NH2-].[NH2-].[NH2-].[NH2-].[NH2-].[NH2-].[NH2-].[NH2-].[O-][O-]
dose: 25.0 mg/kg/injection, schedule: Q01DX009 (ip), vehicle: saline
  T/C: 96 % of control

## CCSc1cccc2nnc(C(C)(C)C)n12
[5]
  T/C: 98 % of control
[6]
  T/C: 99 % of control
[7]
  T/C: 97 % of control

## Cc1c(C#N)sc2ccccc12
dose: 25.0 mg/kg/injection, schedule: Q01DX009 (ip), vehicle: other
  T/C: 96 % of control
dose: 50.0 mg/kg/injection, schedule: Q01DX009 (ip), vehicle: other
  T/C: 105 % of control
dose: 100.0 mg/kg/injection, schedule: Q01DX009 (ip), vehicle: other
  T/C: 89 % of control
